Data taken from the supplement of paper PMC10307832.

Key:
Experiment in all cases: relative viability (nuclei count vs DMSO), 5 days (fraction); higher = more cells survive
MLN4924 + Decitabine = compound: NS(=O)(=O)OC[C@@H]1C[C@@H](n2ccc3c(N[C@H]4CCc5ccccc54)ncnc32)C[C@@H]1O [MLN4924] + Nc1ncn([C@H]2C[C@H](O)[C@@H](CO)O2)c(=O)n1 [Decitabine] (partner 2 µM)
Summary of the method: (§1)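 After 5 days of treatment, lung cancer cells in 1536-well plates were fixed and stained in a single step (final 0.05% Triton X-100, 1% formaldehyde, 1 ug/ml Hoechst) and their nuclei counted on 4× images. Treatment had been applied by pin tool the day after seeding as one drug alone or as a fixed anchor-drug dose with five library-drug doses (not always all listed) in √10 steps. Relative viability is the nuclei count of treated wells divided by that of vehicle wells, and values are medians of duplicate plates.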

GSK126 + Navitoclax = compound: CC[C@H](C)N1C=C(C2=C(C=C(C=C21)C3=CN=C(C=C3)N4CCNCC4)C(=O)NCC5=C(C=C(NC5=O)C)C)C [GSK126] + CC1(C)CCC(c2ccc(Cl)cc2)=C(CN2CCN(c3ccc(C(=O)NS(=O)(=O)c4ccc(N[C@H](CCN5CCOCC5)CSc5ccccc5)c(S(=O)(=O)C(F)(F)F)c4)cc3)CC2)C1 [Navitoclax] (partner 0.5 µM)
Summary of the method: as §1

MLN4924 + Vorinostat = compound: NS(=O)(=O)OC[C@@H]1C[C@@H](n2ccc3c(N[C@H]4CCc5ccccc54)ncnc32)C[C@@H]1O [MLN4924] + O=C(CCCCCCC(=O)Nc1ccccc1)NO [Vorinostat] (partner 1 µM)
Summary of the method: as §1

MLN4924 + AZD7762 = compound: NS(=O)(=O)OC[C@@H]1C[C@@H](n2ccc3c(N[C@H]4CCc5ccccc54)ncnc32)C[C@@H]1O [MLN4924] + NC(=O)Nc1cc(-c2cccc(F)c2)sc1C(=O)N[C@H]1CCCNC1 [AZD7762] (partner 0.2 µM)
Summary of the method: as §1

Row | Cell Line | relative viability (MLN4924 + Decitabine; first compound 0.04 µM) | relative viability (MLN4924 + Decitabine; first compound 0.1265 µM) | relative viability (MLN4924 + Decitabine; first compound 0.4 µM) | relative viability (MLN4924 + Decitabine; first compound 1.265 µM) | relative viability (MLN4924 + Decitabine; first compound 4 µM) | relative viability (GSK126 + Navitoclax; first compound 0.08 µM) | relative viability (GSK126 + Navitoclax; first compound 0.253 µM) | relative viability (GSK126 + Navitoclax; first compound 0.8 µM) | relative viability (GSK126 + Navitoclax; first compound 2.53 µM) | relative viability (GSK126 + Navitoclax; first compound 8 µM) | relative viability (MLN4924 + Vorinostat; first compound 0.04 µM) | relative viability (MLN4924 + Vorinostat; first compound 0.1265 µM) | relative viability (MLN4924 + Vorinostat; first compound 0.4 µM) | relative viability (MLN4924 + Vorinostat; first compound 1.265 µM) | relative viability (MLN4924 + Vorinostat; first compound 4 µM) | relative viability (MLN4924 + AZD7762; first compound 0.04 µM) | relative viability (MLN4924 + AZD7762; first compound 0.1265 µM) | relative viability (MLN4924 + AZD7762; first compound 0.4 µM) | relative viability (MLN4924 + AZD7762; first compound 1.265 µM) | relative viability (MLN4924 + AZD7762; first compound 4 µM)
1 | NCI-H1793 | 0.49 | 0.463 | 0.482 | 0.318 | 0.195 | 0.503 | 0.491 | 0.379 | 0.369 | 0.416 | 0.665 | 0.662 | 0.886 | 0.328 | 0.205 | 0.714 | 0.463 | 0.51 | 0.406 | 0.216
2 | HCC-44 | 0.874 | 0.85 | 0.582 | 0.421 | 0.399 | 0.963 | 0.981 | 0.853 | 0.906 | 1.01 | 1.04 | 0.731 | 0.726 | 0.415 | 0.376 | 1.03 | 0.992 | 0.824 | 0.563 | 0.478
3 | NCI-H3122 | 0.423 | 0.264 | 0.2 | 0.14 | 0.125 | 1.04 | 1.06 | 1.05 | 1 | 1.02 | 0.708 | 0.579 | 0.232 | 0.103 | 0.0771 | 0.916 | 0.485 | 0.229 | 0.132 | 0.105
4 | COR-L23 | 0.465 | 0.431 | 0.321 | 0.156 | 0.138 | 1.17 | 1.01 | 0.834 | 0.95 | 0.968 | 0.414 | 0.34 | 0.195 | 0.0783 | 0.0885 | – | – | – | – | –
5 | 201T | 0.88 | 0.653 | 0.582 | 0.368 | 0.293 | 1.18 | 1.27 | 1.27 | 1.26 | 1.32 | 0.991 | 0.898 | 0.406 | 0.277 | 0.17 | 0.822 | 0.624 | 0.391 | 0.235 | 0.242
6 | NCI-H23 | 0.344 | 0.329 | 0.276 | 0.249 | 0.21 | 0.847 | 0.837 | 0.895 | 0.996 | 1.03 | 0.521 | 0.441 | 0.197 | 0.134 | 0.142 | 0.304 | 0.263 | 0.282 | 0.213 | 0.28
7 | LCLC-103H | 0.807 | 0.638 | 0.547 | 0.261 | 0.315 | – | – | – | – | – | 0.763 | 0.771 | 0.372 | 0.252 | 0.282 | 0.831 | 0.833 | 0.7 | 0.239 | 0.247
8 | NCI-H2087 | 0.197 | 0.248 | 0.253 | 0.0811 | 0.061 | 0.992 | 0.917 | 1.14 | 1.02 | 1.14 | 0.784 | 0.43 | 0.135 | 0.0537 | 0.125 | 1.3 | 1.17 | 0.604 | 0.165 | 0.128
